Data reported in patent US12522583B2, “Benzimidazole derivatives and aza-benzimidazole derivatives as Janus kinase 2 inhibitors and uses thereof” (Dana-Farber Cancer Institute, Inc., priority 2018, dated 2026).

Experiments:
Experiment in all cases: KINOMEscan
Type in all cases: binding
[1] = target: ABL1(H396P)-nonphosphorylated (Homo sapiens (Human), UniProt P00519, H396P); settings: read-out: percent control
Excerpt: (§1) Example 2. In Vitro Kinase Selectivity Profiling of the Compounds of the Present Disclosure

ABL1-phosphorylated = ABL1-phosphorylated (Homo sapiens (Human), UniProt P00519); settings: read-out: percent control
Excerpt: as §1

AMPK-alpha1 = AMPK-alpha1 (Homo sapiens (Human), UniProt Q13131); settings: read-out: percent control
Excerpt: as §1

AURKA = AURKA (Homo sapiens (Human), UniProt O14965); settings: read-out: percent control
Excerpt: as §1

BLK = BLK (Homo sapiens (Human), UniProt P51451); settings: read-out: percent control
Excerpt: as §1

BRSK2 = BRSK2 (Homo sapiens (Human), UniProt Q8IWQ3); settings: read-out: percent control
Excerpt: as §1

CAMK1G = CAMK1G (Homo sapiens (Human), UniProt Q96NX5); settings: read-out: percent control
Excerpt: as §1

CDK9 = CDK9 (Homo sapiens (Human), UniProt P50750); settings: read-out: percent control
Excerpt: as §1

CDKL5 = CDKL5 (Homo sapiens (Human), UniProt O76039); settings: read-out: percent control
Excerpt: as §1

CHEK2 = CHEK2 (Homo sapiens (Human), UniProt O96017); settings: read-out: percent control
Excerpt: as §1

CLK4 = CLK4 (Homo sapiens (Human), UniProt Q9HAZ1); settings: read-out: percent control
Excerpt: as §1

EGFR(G719C) = EGFR(G719C) (Homo sapiens (Human), UniProt P00533, G719C); settings: read-out: percent control
Excerpt: as §1

EGFR(L858R) = EGFR(L858R) (Homo sapiens (Human), UniProt P00533, L858R); settings: read-out: percent control
EGFR(L858R), sequence (P00533 25-1210 L858R): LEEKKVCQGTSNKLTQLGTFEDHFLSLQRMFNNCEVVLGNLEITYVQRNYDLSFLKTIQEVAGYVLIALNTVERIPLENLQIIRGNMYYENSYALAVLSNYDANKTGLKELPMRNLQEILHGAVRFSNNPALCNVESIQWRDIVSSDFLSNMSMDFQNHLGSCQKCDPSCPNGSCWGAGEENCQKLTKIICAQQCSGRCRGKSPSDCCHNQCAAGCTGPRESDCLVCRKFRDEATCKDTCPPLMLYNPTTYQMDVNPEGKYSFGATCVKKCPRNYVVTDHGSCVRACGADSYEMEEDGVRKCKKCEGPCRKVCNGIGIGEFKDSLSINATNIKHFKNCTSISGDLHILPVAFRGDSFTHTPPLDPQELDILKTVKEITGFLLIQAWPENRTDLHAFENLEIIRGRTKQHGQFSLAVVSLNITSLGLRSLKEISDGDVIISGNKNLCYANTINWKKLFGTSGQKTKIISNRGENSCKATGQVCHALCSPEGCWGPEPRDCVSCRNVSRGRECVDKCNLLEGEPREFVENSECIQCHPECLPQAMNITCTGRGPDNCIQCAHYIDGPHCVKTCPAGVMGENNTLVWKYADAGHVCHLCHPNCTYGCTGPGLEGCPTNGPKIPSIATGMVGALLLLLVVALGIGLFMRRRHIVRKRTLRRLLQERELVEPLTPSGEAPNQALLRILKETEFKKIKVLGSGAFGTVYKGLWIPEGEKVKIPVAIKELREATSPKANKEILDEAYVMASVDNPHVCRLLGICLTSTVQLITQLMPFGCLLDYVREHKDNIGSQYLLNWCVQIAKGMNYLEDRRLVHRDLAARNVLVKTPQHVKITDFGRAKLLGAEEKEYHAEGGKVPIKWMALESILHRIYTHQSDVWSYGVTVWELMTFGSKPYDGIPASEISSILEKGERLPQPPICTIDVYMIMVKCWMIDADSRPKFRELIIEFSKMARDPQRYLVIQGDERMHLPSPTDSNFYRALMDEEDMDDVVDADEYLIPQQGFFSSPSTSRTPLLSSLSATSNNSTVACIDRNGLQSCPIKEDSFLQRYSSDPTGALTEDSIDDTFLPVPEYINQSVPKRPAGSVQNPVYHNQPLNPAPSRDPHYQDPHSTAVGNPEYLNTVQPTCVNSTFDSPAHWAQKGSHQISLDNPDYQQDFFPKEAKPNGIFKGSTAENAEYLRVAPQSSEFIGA
Excerpt: as §1

EIF2AK1 = EIF2AK1 (Homo sapiens (Human), UniProt Q9BQI3); settings: read-out: percent control
Excerpt: as §1

EPHA4 = EPHA4 (Homo sapiens (Human), UniProt P54764); settings: read-out: percent control
Excerpt: as §1

ERK1 = ERK1 (Homo sapiens (Human), UniProt P27361); settings: read-out: percent control
Excerpt: as §1

FGFR4 = FGFR4 (Homo sapiens (Human), UniProt P22455); settings: read-out: percent control
Excerpt: as §1

FLT3(ITD, F691L) = settings: 1 μM
Excerpt: as §1

FLT3(N841I) = FLT3(N841I) (Homo sapiens (Human), UniProt P36888, N841I); settings: read-out: percent control
Excerpt: as §1

FRK = FRK (Homo sapiens (Human), UniProt P42685); settings: read-out: percent control
Excerpt: as §1

HUNK = HUNK (Homo sapiens (Human), UniProt P57058); settings: read-out: percent control
Excerpt: as §1

IRAK1 = IRAK1 (Homo sapiens (Human), UniProt P51617); settings: read-out: percent control
Excerpt: as §1

LKB1 = LKB1 (Homo sapiens (Human), UniProt Q15831); settings: read-out: percent control
Excerpt: as §1

LZK = LZK (Homo sapiens (Human), UniProt O43283); settings: read-out: percent control
Excerpt: as §1

MAP3K15 = MAP3K15 (Homo sapiens (Human), UniProt Q6ZN16); settings: read-out: percent control
MAP3K15, sequence (Q6ZN16 whole entry): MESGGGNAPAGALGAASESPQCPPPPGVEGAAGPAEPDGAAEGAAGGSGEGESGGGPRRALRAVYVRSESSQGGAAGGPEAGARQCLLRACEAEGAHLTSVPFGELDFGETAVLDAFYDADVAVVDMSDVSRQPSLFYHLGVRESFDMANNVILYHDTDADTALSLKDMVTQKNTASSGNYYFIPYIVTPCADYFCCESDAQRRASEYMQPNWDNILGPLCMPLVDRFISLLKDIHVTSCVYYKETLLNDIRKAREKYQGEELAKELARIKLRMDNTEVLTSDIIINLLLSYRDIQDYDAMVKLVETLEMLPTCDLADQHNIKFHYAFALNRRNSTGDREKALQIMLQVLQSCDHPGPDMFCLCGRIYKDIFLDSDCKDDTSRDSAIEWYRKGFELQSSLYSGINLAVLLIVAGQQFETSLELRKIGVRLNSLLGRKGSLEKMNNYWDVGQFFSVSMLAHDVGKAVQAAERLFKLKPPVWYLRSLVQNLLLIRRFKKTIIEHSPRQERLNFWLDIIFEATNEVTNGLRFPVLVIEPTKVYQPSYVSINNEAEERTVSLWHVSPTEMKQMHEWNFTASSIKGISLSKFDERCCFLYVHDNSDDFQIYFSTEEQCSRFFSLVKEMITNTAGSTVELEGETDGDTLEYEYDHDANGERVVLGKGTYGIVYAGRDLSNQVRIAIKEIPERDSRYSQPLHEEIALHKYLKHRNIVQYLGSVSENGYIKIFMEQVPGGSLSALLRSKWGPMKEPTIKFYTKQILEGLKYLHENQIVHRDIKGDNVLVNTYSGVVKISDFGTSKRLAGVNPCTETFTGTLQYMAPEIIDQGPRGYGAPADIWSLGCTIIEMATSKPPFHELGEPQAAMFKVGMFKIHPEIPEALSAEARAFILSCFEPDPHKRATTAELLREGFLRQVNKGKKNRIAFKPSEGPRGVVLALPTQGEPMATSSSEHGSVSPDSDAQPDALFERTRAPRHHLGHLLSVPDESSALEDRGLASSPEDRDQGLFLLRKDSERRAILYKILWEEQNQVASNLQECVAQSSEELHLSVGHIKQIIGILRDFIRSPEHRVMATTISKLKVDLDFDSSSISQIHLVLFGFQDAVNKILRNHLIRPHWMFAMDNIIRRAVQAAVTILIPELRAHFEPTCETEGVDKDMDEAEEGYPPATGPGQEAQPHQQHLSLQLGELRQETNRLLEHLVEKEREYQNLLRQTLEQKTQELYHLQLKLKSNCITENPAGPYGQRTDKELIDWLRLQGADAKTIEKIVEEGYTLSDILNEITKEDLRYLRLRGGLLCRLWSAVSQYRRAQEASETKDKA
Excerpt: as §1

MST1 = MST1 (Homo sapiens (Human), UniProt Q13043); settings: read-out: percent control
Excerpt: as §1

MYLK4 = MYLK4 (Homo sapiens (Human), UniProt Q86YV6); settings: read-out: percent control
MYLK4, sequence (Q86YV6 whole entry): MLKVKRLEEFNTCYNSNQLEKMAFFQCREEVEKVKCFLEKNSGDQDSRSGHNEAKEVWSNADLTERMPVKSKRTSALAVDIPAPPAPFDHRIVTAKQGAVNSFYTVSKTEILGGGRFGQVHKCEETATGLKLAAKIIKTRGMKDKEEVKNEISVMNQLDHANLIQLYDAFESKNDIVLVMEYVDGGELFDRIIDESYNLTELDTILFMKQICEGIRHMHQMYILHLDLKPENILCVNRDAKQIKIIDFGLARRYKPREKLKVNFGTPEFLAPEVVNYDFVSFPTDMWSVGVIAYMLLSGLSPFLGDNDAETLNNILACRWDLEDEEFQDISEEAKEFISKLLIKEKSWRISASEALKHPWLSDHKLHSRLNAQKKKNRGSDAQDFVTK
Excerpt: as §1

NEK1 = NEK1 (Homo sapiens (Human), UniProt Q96PY6); settings: read-out: percent control
Excerpt: as §1

PAK4 = PAK4 (Homo sapiens (Human), UniProt O96013); settings: read-out: percent control
Excerpt: as §1

PIK3C2G = PIK3C2G (Homo sapiens (Human), UniProt O75747); settings: read-out: percent control
Excerpt: as §1

PIK3CG = PIK3CG (Homo sapiens (Human), UniProt P48736); settings: read-out: percent control
Excerpt: as §1

PKN1 = PKN1 (Homo sapiens (Human), UniProt Q16512); settings: read-out: percent control
Excerpt: as §1

PLK4 = PLK4 (Homo sapiens (Human), UniProt O00444); settings: read-out: percent control
PLK4, sequence (O00444 whole entry): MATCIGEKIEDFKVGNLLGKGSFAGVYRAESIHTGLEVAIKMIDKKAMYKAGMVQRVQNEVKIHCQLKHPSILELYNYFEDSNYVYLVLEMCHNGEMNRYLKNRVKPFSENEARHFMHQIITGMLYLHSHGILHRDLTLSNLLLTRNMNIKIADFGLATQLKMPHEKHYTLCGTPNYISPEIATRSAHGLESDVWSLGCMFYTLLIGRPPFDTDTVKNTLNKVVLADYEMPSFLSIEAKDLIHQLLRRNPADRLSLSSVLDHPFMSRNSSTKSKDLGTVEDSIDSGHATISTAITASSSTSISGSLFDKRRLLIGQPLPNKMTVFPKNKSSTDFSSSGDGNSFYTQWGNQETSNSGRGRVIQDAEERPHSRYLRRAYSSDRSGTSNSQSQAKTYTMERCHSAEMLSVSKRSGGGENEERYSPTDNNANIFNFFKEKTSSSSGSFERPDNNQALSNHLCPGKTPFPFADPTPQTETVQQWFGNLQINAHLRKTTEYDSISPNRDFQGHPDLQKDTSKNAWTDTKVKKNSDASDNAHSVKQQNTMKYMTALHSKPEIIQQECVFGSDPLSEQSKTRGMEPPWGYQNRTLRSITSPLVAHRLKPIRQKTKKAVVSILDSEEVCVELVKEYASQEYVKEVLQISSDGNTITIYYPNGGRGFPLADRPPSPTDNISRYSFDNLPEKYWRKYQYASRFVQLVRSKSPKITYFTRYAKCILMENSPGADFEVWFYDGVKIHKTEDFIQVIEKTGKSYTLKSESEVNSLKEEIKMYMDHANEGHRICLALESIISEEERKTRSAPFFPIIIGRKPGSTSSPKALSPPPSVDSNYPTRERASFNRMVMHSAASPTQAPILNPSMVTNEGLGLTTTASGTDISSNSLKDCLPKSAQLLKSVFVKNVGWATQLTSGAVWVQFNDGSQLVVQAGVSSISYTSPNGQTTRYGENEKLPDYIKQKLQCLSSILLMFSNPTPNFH
Excerpt: as §1

PRKCH = PRKCH (Homo sapiens (Human), UniProt P24723); settings: read-out: percent control
Excerpt: as §1

[2] = target: RSK1(Kin.Dom.2-C-terminal) (Homo sapiens (Human), UniProt Q15418); settings: read-out: percent control
Excerpt: as §1

SGK = SGK (Homo sapiens (Human), UniProt O00141); settings: read-out: percent control
SGK, sequence (O00141 whole entry): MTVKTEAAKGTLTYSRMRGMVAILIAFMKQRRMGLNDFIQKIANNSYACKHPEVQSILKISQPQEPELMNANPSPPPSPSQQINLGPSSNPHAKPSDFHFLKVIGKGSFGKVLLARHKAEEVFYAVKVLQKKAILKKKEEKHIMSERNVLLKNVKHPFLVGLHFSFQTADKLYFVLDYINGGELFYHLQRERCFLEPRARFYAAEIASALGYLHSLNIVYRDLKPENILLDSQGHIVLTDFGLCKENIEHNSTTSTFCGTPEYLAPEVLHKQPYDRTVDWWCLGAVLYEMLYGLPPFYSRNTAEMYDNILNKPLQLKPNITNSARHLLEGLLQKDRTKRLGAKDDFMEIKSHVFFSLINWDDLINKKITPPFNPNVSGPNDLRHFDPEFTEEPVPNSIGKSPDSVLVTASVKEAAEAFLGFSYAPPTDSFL
Excerpt: as §1

SRPK2 = SRPK2 (Homo sapiens (Human), UniProt P78362); settings: read-out: percent control
Excerpt: as §1

TGFBR2 = TGFBR2 (Homo sapiens (Human), UniProt P37173); settings: read-out: percent control
TGFBR2, sequence (P37173 23-567): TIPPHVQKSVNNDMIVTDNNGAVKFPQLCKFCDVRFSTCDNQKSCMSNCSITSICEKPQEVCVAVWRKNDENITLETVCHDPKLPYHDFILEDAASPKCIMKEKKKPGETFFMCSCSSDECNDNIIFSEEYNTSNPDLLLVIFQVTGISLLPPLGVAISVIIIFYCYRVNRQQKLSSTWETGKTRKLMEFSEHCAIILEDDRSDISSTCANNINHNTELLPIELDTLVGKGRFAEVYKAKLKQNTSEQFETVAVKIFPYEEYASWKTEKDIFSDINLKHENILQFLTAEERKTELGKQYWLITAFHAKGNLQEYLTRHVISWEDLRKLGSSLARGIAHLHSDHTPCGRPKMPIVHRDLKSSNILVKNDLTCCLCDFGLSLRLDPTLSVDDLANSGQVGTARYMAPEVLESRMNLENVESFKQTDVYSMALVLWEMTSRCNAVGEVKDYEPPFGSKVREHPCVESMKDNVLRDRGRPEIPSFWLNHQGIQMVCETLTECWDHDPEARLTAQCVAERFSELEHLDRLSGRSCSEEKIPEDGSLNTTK
Excerpt: as §1

TRKB = TRKB (Homo sapiens (Human), UniProt Q16620); settings: read-out: percent control
Excerpt: as §1

p38-alpha = p38-alpha (Homo sapiens (Human), UniProt Q16539); settings: read-out: percent control
Excerpt: as §1

p38-delta = p38-delta (Homo sapiens (Human), UniProt O15264); settings: read-out: percent control
Excerpt: as §1

`CCN1CCN(Cc2ccc(Nc3nc4ccc(Oc5ccnc(NC(C)=O)c5)c(C)c4n3C)cc2C(F)(F)F)CC1` [Compound I-6, N-(4-(2-(4-((4-ethylpiperazin-1-yl)methyl)-3-(trifluoromethyl)phenylamino)-1,7-dimethyl-1H-benzo[d]imidazol-6-yloxy)pyridin-2-yl)acetamide] was tested, and the remaining binding at 1 µM [1] was 1.1%, the remaining binding at 1 µM (ABL1-phosphorylated) was 11% and the remaining binding at 1 µM (AMPK-alpha1) was 95%. For the same compound, the remaining binding at 1 µM (AURKA) was 98%, the remaining binding at 1 µM (BLK) was 17% and the remaining binding at 1 µM (BRSK2) was 74%. The remaining binding at 1 µM (CAMK1G) was 99%, the remaining binding at 1 µM (CDK9) was 96% and the remaining binding at 1 µM (CDKL5) was 92%. The remaining binding at 1 µM (CHEK2) was 90%, the remaining binding at 1 µM (CLK4) was 81% and the remaining binding at 1 µM (EGFR(G719C)) was 94%. The remaining binding at 1 µM (EGFR(L858R)) was 97%, the remaining binding at 1 µM (EIF2AK1) was 29% and the remaining binding at 1 µM (EPHA4) was 91%. It also gave a remaining binding at 1 µM (ERK1) of 100%, a remaining binding at 1 µM (FGFR4) of 100% and a percent control (FLT3(ITD, F691L)) of 46%. It also gave a remaining binding at 1 µM (FLT3(N841I)) of 14%, a remaining binding at 1 µM (FRK) of 11% and a remaining binding at 1 µM (HUNK) of 91%. The remaining binding at 1 µM (IRAK1) was 38%, the remaining binding at 1 µM (LKB1) was 91% and the remaining binding at 1 µM (LZK) was 75%. It also gave a remaining binding at 1 µM (MAP3K15) of 60%, a remaining binding at 1 µM (MST1) of 100% and a remaining binding at 1 µM (MYLK4) of 96%. The remaining binding at 1 µM (NEK1) was 79%, the remaining binding at 1 µM (PAK4) was 97% and the remaining binding at 1 µM (PIK3C2G) was 86%. For the same compound, the remaining binding at 1 µM (PIK3CG) was 95%, the remaining binding at 1 µM (PKN1) was 100% and the remaining binding at 1 µM (PLK4) was 100%. It also gave a remaining binding at 1 µM (PRKCH) of 87%, a remaining binding at 1 µM [2] of 100% and a remaining binding at 1 µM (SGK) of 96%. The remaining binding at 1 µM (SRPK2) was 75%, the remaining binding at 1 µM (TGFBR2) was 81% and the remaining binding at 1 µM (TRKB) was 1.4%. For the same compound, the remaining binding at 1 µM (p38-alpha) was 44% and the remaining binding at 1 µM (p38-delta) was 73%.

With `CCN1CCN(Cc2ccc(Nc3nc4ccc(Oc5ccnc(NC(C)=O)c5)cc4n3C)cc2C(F)(F)F)CC1` [Compound I-2] the remaining binding at 1 µM [1] was 0.05%, the remaining binding at 1 µM (ABL1-phosphorylated) was 23% and the remaining binding at 1 µM (AMPK-alpha1) was 93%. For the same compound, the remaining binding at 1 µM (AURKA) was 69%, the remaining binding at 1 µM (BLK) was 49% and the remaining binding at 1 µM (BRSK2) was 100%. It also gave a remaining binding at 1 µM (CAMK1G) of 100%, a remaining binding at 1 µM (CDK9) of 100% and a remaining binding at 1 µM (CDKL5) of 96%. The remaining binding at 1 µM (CHEK2) was 96%, the remaining binding at 1 µM (CLK4) was 100% and the remaining binding at 1 µM (EGFR(G719C)) was 97%. It also gave a remaining binding at 1 µM (EGFR(L858R)) of 83%, a remaining binding at 1 µM (EIF2AK1) of 75% and a remaining binding at 1 µM (EPHA4) of 100%. It also gave a remaining binding at 1 µM (ERK1) of 100%, a remaining binding at 1 µM (FGFR4) of 100% and a percent control (FLT3(ITD, F691L)) of 34%. It also gave a remaining binding at 1 µM (FLT3(N841I)) of 11%, a remaining binding at 1 µM (FRK) of 45% and a remaining binding at 1 µM (HUNK) of 65%. It also gave a remaining binding at 1 µM (IRAK1) of 79%, a remaining binding at 1 µM (LKB1) of 40% and a remaining binding at 1 µM (LZK) of 100%. It also gave a remaining binding at 1 µM (MAP3K15) of 88%, a remaining binding at 1 µM (MST1) of 93% and a remaining binding at 1 µM (MYLK4) of 100%. The remaining binding at 1 µM (NEK1) was 84%, the remaining binding at 1 µM (PAK4) was 94% and the remaining binding at 1 µM (PIK3C2G) was 80%. The remaining binding at 1 µM (PIK3CG) was 100%, the remaining binding at 1 µM (PKN1) was 57% and the remaining binding at 1 µM (PLK4) was 92%. The remaining binding at 1 µM (PRKCH) was 100%, the remaining binding at 1 µM [2] was 93% and the remaining binding at 1 µM (SGK) was 85%. It also gave a remaining binding at 1 µM (SRPK2) of 92%, a remaining binding at 1 µM (TGFBR2) of 90% and a remaining binding at 1 µM (TRKB) of 36%. For the same compound, the remaining binding at 1 µM (p38-alpha) was 92% and the remaining binding at 1 µM (p38-delta) was 77%.
